According to patent US20220372013A2, “PIPERIDINE-2,6-DIONE DERIVATIVES AND CROHN'S DISEASE TREATING” (Tianjin Hemay Pharmaceutical Sci-Tech Co., Ltd, priority 2016, published 2022):
Marks after values point to notes of the source that are not given here.

Columns and labels:
[1] = tested on: DNBS-Induced Inflammatory Bowel Disease Models in Rats; assay: Biological Example 2: DNBS-induced inflammatory bowel disease models in rats; assay type: in vivo, Wistar rats; conditions: for Adhesion Degree / Colon Length / Colon Weight / Ulcer Area: sixth day, Mean ± SD
Description: 110 male Wistar rats were fasted for 40 hours. A 5% glucose injection (10 mL/Kg) was administered subcutaneously during fasting. 48 rats with normal conditions and moderate body weight were selected from the fasting rats. The animals were randomly divided into […] according to the body weight: normal control group, model control group, sulfasalazine group (300 mg/Kg), dexamethasone group (0.1 mg/Kg), the compound in Example 26 group (30 mg/kg) and the compound in Example 27 group (30 mg/kg), with 8 rats in each group. The animals were anesthetized with isoflurane. A specially made gavage device (made by a rat gavage device having the diameter of 2 mm, which was nested on a mouse gavage device having the diameter of 1 mm) was slowly inserted into the enteric cavity at 8 cm from the anus. The model control group, the compound in Example 26 group and the compound in Example 27 group were administered with 0.5 mL of 50 mg/mL DNBS in 30% ethanol solution. The normal control group was administered with 0.5 mL of 30% ethanol solution. The animals were inverted in anesthesia for 15 minutes after the gavage device was removed. The day when the model was prepared was the first day of the experiment. After 4 hours of DNBS induction, the corresponding drug or the corresponding volume of 1% CMC-Na was administered once per day. On the sixth day of the experiment, the animals were euthanized to observe the results of each index so as to score the colon adhesion degree, measure the length of colon and ulcer area, weigh colon and calculate the colon weight to length ratio.
The compound in Example 26 and Example 27, sulfasalazine and dexamethasone: Preparation Method: Suspended with 1% CMC-Na, and prepared when it was needed.
Levene's Test for homogeneity of data was performed with Spss. Where the data were homogeneous (P>0.05), one-way ANOVA LSD test was performed. Where the analysis of variance was significant (P≤0.05), Dunnett's multiple comparison (parameter method) was performed. Where the results of Levene's Test were significant (P≤0.05), Kruskal-Wallis nonparametric test was performed. Where the results of Kruskal-Wallis nonparametric test were significant (P≤0.05), Mann-Whitney U test was performed for pairwise comparison.

[2] = tested on: DNBS-Induced Inflammatory Bowel Disease Models in Rats; assay: Biological Example 3: DNBS-induced inflammatory bowel disease models in rats; assay type: in vivo, Wistar rats; conditions: 30 mg/Kg i.g. qd × 7; for Adhesion Degree of Colon / Colon weight to length ratio / Inhibitory rate of colon adhesion / Inhibitory rate of ulcer area of colon / Inhibitory rate of weight increase per length / Ulcer area of colon: day 7; for Body weight: Mean ± SD
Description: 102 male Wistar rats were fasted for 40 hours. A 5% glucose injection (10 mL/Kg) was administered subcutaneously during fasting. 72 rats with normal conditions and moderate body weight were selected from the fasting rats. The animals were randomly divided into 9 groups according to the body weight (see Table 9. Grouped Table).
The animals were anesthetized with ether after 40 hours fasting. A specially made gavage device was slowly inserted into the enteric cavity at 8 cm from the anus. The model control group and each test group were administered with 0.5 mL of 50 mg/mL DNBS in 30% ethanol solution. The normal control group was administered with 0.5 mL of 30% ethanol solution. The animals were inverted in anesthesia for 15 minutes. The day when the model was prepared was day 0 of the experiment. After 4 hours of DNBS induction, the corresponding drug or the corresponding volume of 1% CMC-Na was administered once per day. On day 7 of the experiment, the animals were euthanized to score the colon adhesion degree, measure the length of colon and ulcer area, weigh colon and calculate the colon weight to length ratio.
One-way ANOVA analysis of the length of colon and colon weight per length of rats was performed by SPSS22. Statistical analyses between groups were performed. The adhesion degree was scored. Mann-Whitney U non-parametric test was performed on ulcer area. Statistical analyses between groups were performed.
Calculation Formula of Inhibitory rate of weight increase per length: (Colon weight to length ratio in model group−Colon weight to length ratio in administration group)/(Colon weight to length ratio in model group−Colon weight to length ratio in blank group)

mice = assay: Biological Example 5: acute toxicity experiment of single oral administration in mice; assay type: in vivo; conditions: single oral 1000 mg/Kg, Mean ± SD
How it was run: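 Fasted ICR mice (19-21 g, three females and three males per group) received a single oral dose of 1000 mg/Kg, given first to one mouse of each sex and then to the remaining four. Behaviour, nervous and autonomic signs, and deaths were recorded over 0-15 min. Animals were then observed for 7 days with daily body weight.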

Row | SMILES | Adhesion Degree of Colon [2] [point] | Colon weight to length ratio [2] [mg/cm] | Inhibitory rate of colon adhesion [2] | Inhibitory rate of ulcer area of colon [2] | Inhibitory rate of weight increase per length [2] | Ulcer area of colon [2] | Daily Body Weight (mice; Female mice, Day 1) [g] | Daily Body Weight (mice; Female mice, Day 2) [g] | Daily Body Weight (mice; Female mice, Day 3) [g] | Daily Body Weight (mice; Female mice, Day 4) [g] | Daily Body Weight (mice; Female mice, Day 5) [g] | Daily Body Weight (mice; Female mice, Day 6) [g] | Daily Body Weight (mice; Female mice, Day 7) [g] | Daily Body Weight (mice; Male mice, Day 1) [g] | Daily Body Weight (mice; Male mice, Day 2) [g] | Daily Body Weight (mice; Male mice, Day 3) [g] | Daily Body Weight (mice; Male mice, Day 4) [g] | Daily Body Weight (mice; Male mice, Day 5) [g] | Daily Body Weight (mice; Male mice, Day 6) [g] | Daily Body Weight (mice; Male mice, Day 7) [g] | further results
1 | C[C@@H]1C[C@H]2[C@@H]3CCC4=CC(=O)C=C[C@]4(C)[C@@]3(F)[C@@H](O)C[C@]2(C)[C@@]1(O)C(=O)CO [Dexamethasone, dexamethasone, reference compound] | – | – | – | – | – | – | – | – | – | – | – | – | – | – | – | – | – | – | – | – | Adhesion Degree ([1]; 0.1 mg/Kg i.g. qd × 6): 0.3 ± 0.5 Points; Colon Length ([1]; 0.1 mg/Kg i.g. qd × 6): 14.2 ± 0.9 cm; Colon Weight ([1]; 0.1 mg/Kg i.g. qd × 6): 1496.0 ± 450.0 mg; Ulcer Area ([1]; 0.1 mg/Kg i.g. qd × 6): 1.4 ± 1.5# cm^2
2 | Nc1cccc2c1C(=O)N(C1CCC(=O)N(CCO)C1=O)C2=O (centres unmarked) [Example 6, 4-amino-2-(1-(2-hydroxyethyl)-2,6-dioxopiperidin-3-yl)isoindolin-1,3-dione] | 0.6 ± 0.5 | 99 ± 21 | 64.7# % | 89.0# % | 70.9## % | 0.34 ± 0.54# cm^2 | 17.5 ± 0.9 | 21.5 ± 0.9 | 21.6 ± 1.3 | 22.0 ± 1.2 | 22.3 ± 1.9 | 22.4 ± 2.3 | 22.9 ± 2.0 | 18.4 ± 0.6 | 21.5 ± 0.9 | 21.6 ± 1.3 | 25.5 ± 0.5 | 25.9 ± 0.9 | 26.9 ± 1.1 | 27.1 ± 1.1 | Body weight ([2]; Day 0): 137.5 ± 5.6 g; Body weight ([2]; Day 1): 138.1 ± 8.0 g; Body weight ([2]; Day 2): 141.8 ± 13.1 g; Body weight ([2]; Day 3): 147.4 ± 16.5 g; Body weight ([2]; Day 4): 154.5 ± 17.7 g; Body weight ([2]; Day 5): 164.2 ± 16.2 g; Body weight ([2]; Day 6): 169.3 ± 18.4 g; Body weight ([2]; Day 7): 180.9 ± 15.5 g
3 | COCCCCN1C(=O)CCC(N2C(=O)c3cccc(N)c3C2=O)C1=O (centres unmarked) [Example 22, 4-amino-2-(1-(4-methoxybutyl)-2,6-dioxopiperidin-3-yl)isoindolin-1,3-dione] | 0.8 ± 0.9 | 112 ± 40 | 52.9# % | 40.5% | 54.4# % | 1.84 ± 2.59 cm^2 | 18.5 ± 0.6 | 21.8 ± 0.3 | 22.9 ± 0.4 | 24.0 ± 1.0 | 25.0 ± 0.4 | 25.3 ± 0.6 | 25.6 ± 0.2 | 17.1 ± 0.3 | 22.9 ± 0.8 | 23.5 ± 0.9 | 25.2 ± 0.5 | 27.2 ± 1.9 | 27.1 ± 1.8 | 27.4 ± 1.9 | Body weight ([2]; Day 0): 137.5 ± 7.2 g; Body weight ([2]; Day 1): 137.0 ± 9.0 g; Body weight ([2]; Day 2): 139.7 ± 11.2 g; Body weight ([2]; Day 3): 144.1 ± 12.7 g; Body weight ([2]; Day 4): 152.6 ± 20.0 g; Body weight ([2]; Day 5): 162.7 ± 19.0 g; Body weight ([2]; Day 6): 170.5 ± 17.7 g; Body weight ([2]; Day 7): 178.3 ± 20.7 g
4 | COCCCN1C(=O)CCC(N2C(=O)c3cccc(N)c3C2=O)C1=O (centres unmarked) [Example 26, 4-amino-2-(1-(3-methoxypropyl)-2,6-dioxopiperidin-3-yl)isoindolin-1,3-dione] | – | – | – | – | – | – | 18.0 ± 0.7 | 21.9 ± 0.3 | 22.1 ± 0.5 | 22.4 ± 0.2 | 22.7 ± 0.3 | 22.6 ± 0.3 | 22.4 ± 0.2 | 18.7 ± 0.8 | 23.4 ± 0.5 | 25.0 ± 0.6 | 26.6 ± 1.4 | 27.3 ± 1.3 | 28.3 ± 1.3 | 28.8 ± 1.4 | Adhesion Degree ([1]; 30 mg/Kg i.g. qd × 6): 0.3 ± 0.5 Points; Colon Length ([1]; 30 mg/Kg i.g. qd × 6): 13.7 ± 1.4 cm; Colon Weight ([1]; 30 mg/Kg i.g. qd × 6): 1628.3 ± 185.5 mg; Ulcer Area ([1]; 30 mg/Kg i.g. qd × 6): 1.1 ± 0.9## cm^2; therapeutic effects on the model (in words) ([1]; 30 mg/kg i.g. qd × 6): good therapeutic effects; growth rate of the body weight (in words) ([1]; fourth day of the experiment, compared with model control group, doses as in Table 7): higher than that in the model control group
